Laboratory results as given in ChEMBL document CHEMBL3763124, “N-Benzylbenzamides: A Novel Merged Scaffold for Orally Available Dual Soluble Epoxide Hydrolase/Peroxisome Proliferator-Activated Receptor γ Modulators” (J Med Chem, 2016).
≈ marks a conversion by molar mass, not a printed value. Calls of active or inactive are those of the source. No cut-off for these calls is given here.

Key:
[1] = molecular target: T1, Peroxisome proliferator-activated receptor alpha (Homo sapiens) (UniProt Q07869); experiment: Transactivation of human PPARalpha expressed in African green monkey COS7 cells incubated overnight by dual-glo luciferase reporter assay relative to GW7647; assay type: cell-based; settings: COS-7
T1 sequence (whole entry): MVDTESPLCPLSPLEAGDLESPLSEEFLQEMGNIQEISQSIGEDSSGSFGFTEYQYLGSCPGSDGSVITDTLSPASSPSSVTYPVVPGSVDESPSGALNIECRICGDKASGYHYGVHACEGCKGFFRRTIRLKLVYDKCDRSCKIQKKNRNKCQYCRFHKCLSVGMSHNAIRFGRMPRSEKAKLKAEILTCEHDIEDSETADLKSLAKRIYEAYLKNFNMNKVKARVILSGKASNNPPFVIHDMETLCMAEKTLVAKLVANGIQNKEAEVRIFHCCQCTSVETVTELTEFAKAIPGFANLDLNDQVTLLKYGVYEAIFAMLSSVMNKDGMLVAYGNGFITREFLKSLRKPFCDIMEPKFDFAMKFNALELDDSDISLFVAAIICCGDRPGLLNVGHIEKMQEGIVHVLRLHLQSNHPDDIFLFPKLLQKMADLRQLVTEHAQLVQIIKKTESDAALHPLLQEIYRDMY

[2] = Solubility of the compound in water by microplate reader analysis; assay type: physicochemical
[3] = molecular target: T2, Peroxisome proliferator-activated receptor alpha (Homo sapiens, UniProt Q07869); settings: cos-7
T2 sequence (Q07869 whole entry): T1 sequence (whole entry)
Description: Transactivation of human PPARalpha expressed in African green monkey COS7 cells incubated overnight by dual-glo luciferase reporter gene assay

[4] = molecular target: T3, Peroxisome proliferator-activated receptor delta (Homo sapiens, UniProt Q03181); experiment: Transactivation of human PPARdelta expressed in African green monkey COS7 cells incubated overnight by dual-glo luciferase reporter gene assay; assay type: cell-based; settings: cos-7
T3 sequence (Q03181 whole entry): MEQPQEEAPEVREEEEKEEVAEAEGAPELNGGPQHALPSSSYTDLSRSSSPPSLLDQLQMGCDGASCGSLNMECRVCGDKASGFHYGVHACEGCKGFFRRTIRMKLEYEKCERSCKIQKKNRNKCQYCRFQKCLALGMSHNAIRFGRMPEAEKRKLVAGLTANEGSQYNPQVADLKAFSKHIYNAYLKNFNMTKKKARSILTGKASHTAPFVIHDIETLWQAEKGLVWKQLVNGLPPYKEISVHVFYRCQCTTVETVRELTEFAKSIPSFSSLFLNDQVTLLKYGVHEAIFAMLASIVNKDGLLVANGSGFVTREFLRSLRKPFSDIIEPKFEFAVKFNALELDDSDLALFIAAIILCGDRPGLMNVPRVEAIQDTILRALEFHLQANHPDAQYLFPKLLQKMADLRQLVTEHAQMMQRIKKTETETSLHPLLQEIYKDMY

[5] = molecular target: T4, Peroxisome proliferator-activated receptor delta (Homo sapiens) (UniProt Q03181); experiment: Transactivation of human PPARdelta expressed in African green monkey COS7 cells at 10 uM incubated overnight by dual-glo luciferase reporter assay; assay type: cell-based; settings: COS-7
T4 sequence (whole entry): T3 sequence (Q03181 whole entry)

[6] = molecular target: T5, Bifunctional epoxide hydrolase 2 (Homo sapiens, UniProt P34913); experiment: Inhibition of human recombinant sEH using PHOME as substrate preincubated for 30 mins followed by substrate addition measured for 30 mins by fluorescence-based assay
T5 sequence (P34913 whole entry): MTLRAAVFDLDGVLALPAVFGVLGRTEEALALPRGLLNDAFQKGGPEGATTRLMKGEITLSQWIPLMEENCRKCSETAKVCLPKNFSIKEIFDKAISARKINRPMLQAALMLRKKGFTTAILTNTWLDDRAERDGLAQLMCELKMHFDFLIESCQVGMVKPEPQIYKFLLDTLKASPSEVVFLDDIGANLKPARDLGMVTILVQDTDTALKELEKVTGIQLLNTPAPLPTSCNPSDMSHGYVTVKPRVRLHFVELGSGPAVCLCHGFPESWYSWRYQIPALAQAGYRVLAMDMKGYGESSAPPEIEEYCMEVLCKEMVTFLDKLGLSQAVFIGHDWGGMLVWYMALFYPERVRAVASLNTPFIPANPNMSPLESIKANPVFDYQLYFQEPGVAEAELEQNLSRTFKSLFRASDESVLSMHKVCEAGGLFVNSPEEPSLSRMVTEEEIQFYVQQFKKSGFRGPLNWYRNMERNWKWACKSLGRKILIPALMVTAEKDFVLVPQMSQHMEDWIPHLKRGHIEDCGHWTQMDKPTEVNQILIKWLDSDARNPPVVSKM

[7] = molecular target: T6, Bifunctional epoxide hydrolase 2 (Homo sapiens) (UniProt P34913); experiment: Inhibition of human recombinant sEH using PHOME as substrate at 10 uM preincubated for 30 mins followed by substrate addition measured for 30 mins by fluorescence-based assay
T6 sequence (whole entry): T5 sequence (P34913 whole entry)

[8] = molecular target: T1, Peroxisome proliferator-activated receptor alpha (Homo sapiens); experiment: Transactivation of human PPARalpha expressed in African green monkey COS7 cells at 10 uM incubated overnight by dual-glo luciferase reporter assay; assay type: cell-based; settings: COS-7

Row | SMILES | Emax [1] | solubility [2] [µM] | EC50 [3] | EC50 [4] | Emax [5] | IC50 [6] [nM] | inhibition [7] [%] | Activity [8] [%]
1 | CCOC(=O)CCc1ccc(C(=O)NCc2ccccc2C(F)(F)F)cc1 | inactive | 3.75 (≈ 1.42 µg/mL) | Not Active | Not Active | inactive |  |  | 
2 | CCOC(=O)C(CC)Cc1ccc(C(=O)NCc2ccc(F)cc2)cc1 (stereo not drawn) | inactive |  | Not Active | Not Active |  | 2200 |  | 
3 | CCCC(Cc1ccc(C(=O)NCc2ccccc2C(F)(F)F)cc1)C(=O)O (stereo not drawn) | inactive | 375 (≈ 148 µg/mL) | Not Active | Not Active | inactive |  |  | 
4 | CCOC(=O)C(CC)Cc1ccc(C(=O)NCc2ccc(OC(F)(F)F)cc2)cc1 (stereo not drawn) |  |  |  | Not Active |  | 900 |  | 
5 | CCC(Cc1ccc(C(=O)NCc2ccc(OC(F)(F)F)cc2)cc1)C(=O)O (stereo not drawn) |  |  |  | Not Active |  | 14000 |  | 
6 | CCOC(=O)/C(=C/c1ccc(C(=O)NCc2ccccc2C(F)(F)F)cc1)CC | inactive |  | Not Active | Not Active | inactive |  |  | 
7 | CCC(Cc1ccc(C(=O)NCc2ccccc2Cl)cc1)C(=O)O (stereo not drawn) | inactive |  | Not Active | Not Active |  |  | 20 | 
8 | CCOC(=O)C(CC)Cc1ccc(C(=O)NCc2ccc(OC)cc2)cc1 (stereo not drawn) | inactive | 7.5 (≈ 2.77 µg/mL) | Not Active | Not Active |  | 620 |  | 
9 | CCC(Cc1ccc(C(=O)NCc2ccccc2C)cc1)C(=O)O (stereo not drawn) | inactive |  | Not Active | Not Active |  |  | 25 | 
10 | CCOC(=O)C(CC)Cc1ccc(C(=O)NCc2ccccc2Cl)cc1 (stereo not drawn) | inactive |  | Not Active | Not Active |  | 3800 |  | 
11 | CCC(Cc1ccc(C(=O)NCc2ccc(Cl)cc2)cc1)C(=O)O (stereo not drawn) | inactive | 375 (≈ 130 µg/mL) | Not Active | Not Active |  | 1500 |  | 
12 | CCC(Cc1ccc(C(=O)NCc2ccc(F)cc2)cc1)C(=O)O (stereo not drawn) | inactive |  | Not Active | Not Active |  |  | 28 | 
13 | CCOC(=O)C(CC)Cc1ccc(C(=O)NCc2ccc(F)cc2C(F)(F)F)cc1 (stereo not drawn) | inactive |  | Not Active | Not Active |  | 120 |  | 
14 | CCOC(=O)C(CC)Cc1ccc(C(=O)NCc2ccc(C(F)(F)F)cc2)cc1 (stereo not drawn) |  |  |  | Not Active |  | 570 |  | 22
15 | CCC(Cc1ccc(C(=O)NCc2ccccc2)cc1)C(=O)O (stereo not drawn) | inactive |  | Not Active | Not Active |  |  | 4 | 
16 | CCOC(=O)C(CC)Cc1ccc(C(=O)NCc2ccccc2)cc1 (stereo not drawn) | inactive |  | Not Active | Not Active |  | 8500 |  | 
17 | CCOC(=O)C(Cc1ccc(C(=O)NCc2ccccc2C(F)(F)F)cc1)c1ccccc1 (stereo not drawn) | inactive | 3.75 (≈ 1.71 µg/mL) | Not Active | Not Active | inactive |  |  | 

Row | SMILES | Emax [1] | solubility [2] [µM] | EC50 [3] | EC50 [4] | Emax [5] | IC50 [6] [nM] | inhibition [7] [%] | Activity [8] [%]
18 | O=C(NCc1ccccc1C(F)(F)F)c1ccc(C2CC2C(=O)O)cc1 (stereo not drawn) | inactive |  | Not Active | Not Active | inactive |  |  | 
19 | CCOC(=O)C(CC)Cc1ccc(C(=O)NCc2ccccc2OC(F)(F)F)cc1 (stereo not drawn) | inactive | 75 (≈ 31.8 µg/mL) | Not Active | Not Active |  | 30 |  | 
20 | CCC(Cc1ccc(C(=O)NCc2ccc(OC)cc2)cc1)C(=O)O (stereo not drawn) | inactive | 375 (≈ 128 µg/mL) | Not Active | Not Active |  |  | 34 | 
21 | CCOC(=O)C(CC)Cc1ccc(C(=O)NCc2ccc(Cl)cc2)cc1 (stereo not drawn) | inactive | 7.5 (≈ 2.8 µg/mL) | Not Active | Not Active |  | 1700 |  | 
22 | CCC(Cc1ccc(C(=O)NCc2ccccc2OC(F)(F)F)cc1)C(=O)O (stereo not drawn) | inactive | 375 (≈ 148 µg/mL) | Not Active | Not Active |  |  | 23 | 
23 | CC/C(=C\c1ccc(C(=O)NCc2ccccc2C(F)(F)F)cc1)C(=O)O | inactive |  | Not Active | Not Active | inactive |  |  | 
24 | CCCC(Cc1ccc(C(=O)NCc2ccccc2C(F)(F)F)cc1)C(=O)OCC (stereo not drawn) | inactive | 3.75 (≈ 1.58 µg/mL) | Not Active | Not Active | inactive |  |  | 
25 | CCOC(=O)C(CC)Cc1ccc(C(=O)NCc2ccc(OC)cc2C(F)(F)F)cc1 (stereo not drawn) |  |  |  | Not Active |  | 30 |  | 22
26 | CCOC(=O)C(C)Cc1ccc(C(=O)NCc2ccccc2C(F)(F)F)cc1 (stereo not drawn) | inactive | 7.5 (≈ 2.95 µg/mL) | Not Active | Not Active | inactive |  |  | 
27 | CCC(Cc1cccc(C(=O)NCc2ccccc2C(F)(F)F)c1)C(=O)O (stereo not drawn) |  |  |  | Not Active | inactive |  |  | 34
28 | CCOC(=O)C(CC)Cc1cccc(C(=O)NCc2ccccc2C(F)(F)F)c1 (stereo not drawn) | inactive |  | Not Active | Not Active | inactive |  |  | 
29 | O=C(NCc1ccccc1C(F)(F)F)c1ccc(CC(C(=O)O)c2ccccc2)cc1 (stereo not drawn) | inactive | 75 (≈ 32.1 µg/mL) | Not Active | Not Active | inactive |  |  | 
30 | CCC(Cc1ccc(C(=O)NCc2ccccc2Br)cc1)C(=O)O (stereo not drawn) | inactive | 375 (≈ 146 µg/mL) | Not Active | Not Active |  |  | 34 | 
31 | O=C(O)CCc1ccc(C(=O)NCc2ccccc2C(F)(F)F)cc1 | inactive | 375 (≈ 132 µg/mL) | Not Active | Not Active | inactive |  |  | 
32 | CCOC(=O)C(CC)Cc1ccc(C(=O)NCc2ccccc2C)cc1 (stereo not drawn) |  |  |  | Not Active |  | 900 |  | 15
33 | CCC(Cc1ccc(C(=O)NCc2ccc(F)cc2C(F)(F)F)cc1)C(=O)O (stereo not drawn) | inactive |  | Not Active | Not Active |  | 1200 |  | 
34 | CC(Cc1ccc(C(=O)NCc2ccccc2C(F)(F)F)cc1)C(=O)O (stereo not drawn) | inactive | 375 (≈ 137 µg/mL) | Not Active | Not Active | inactive |  |  | 
